Like-named read-outs stand apart in the source and are kept apart here.
Key:
[1] = tested on: BChE; conditions: cited from earlier work; for BChE inhibition: 25 μg/mL (sphondin 115.7 μM, pimpinellin 101.5 μM), from Heracleum platytaenium
[2] = target: T1, recombinant human MAO-B (Homo sapiens, UniProt P27338); experiment: biochemical; type: biochemical; conditions: for remaining activity at 10 µM: read-out: Residual Activity at 10 µM (%) MAO-B
T1 construct: purchased Sigma-Aldrich
T1 sequence (P27338 1-520): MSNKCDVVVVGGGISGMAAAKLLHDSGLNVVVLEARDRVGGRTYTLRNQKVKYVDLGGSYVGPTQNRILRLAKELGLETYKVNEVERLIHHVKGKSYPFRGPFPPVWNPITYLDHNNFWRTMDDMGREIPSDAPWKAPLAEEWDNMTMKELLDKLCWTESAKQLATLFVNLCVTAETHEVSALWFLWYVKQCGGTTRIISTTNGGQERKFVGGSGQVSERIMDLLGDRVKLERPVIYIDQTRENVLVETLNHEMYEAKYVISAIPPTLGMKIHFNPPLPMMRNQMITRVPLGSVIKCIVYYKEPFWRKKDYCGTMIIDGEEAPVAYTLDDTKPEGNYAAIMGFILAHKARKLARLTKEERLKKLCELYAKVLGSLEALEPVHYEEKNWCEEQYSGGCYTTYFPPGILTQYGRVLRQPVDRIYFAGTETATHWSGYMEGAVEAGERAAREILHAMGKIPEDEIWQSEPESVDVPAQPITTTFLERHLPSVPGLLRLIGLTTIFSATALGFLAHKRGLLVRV

[3] = target: T2, BChE from equine serum (Equus caballus, UniProt P81908); experiment: Reversibility of BChE inhibition by dialysis; type: biochemical
T2 construct: BChE from equine serum; purchased Sigma-Aldrich; host or cells: equine serum
T2 sequence (P81908 whole entry): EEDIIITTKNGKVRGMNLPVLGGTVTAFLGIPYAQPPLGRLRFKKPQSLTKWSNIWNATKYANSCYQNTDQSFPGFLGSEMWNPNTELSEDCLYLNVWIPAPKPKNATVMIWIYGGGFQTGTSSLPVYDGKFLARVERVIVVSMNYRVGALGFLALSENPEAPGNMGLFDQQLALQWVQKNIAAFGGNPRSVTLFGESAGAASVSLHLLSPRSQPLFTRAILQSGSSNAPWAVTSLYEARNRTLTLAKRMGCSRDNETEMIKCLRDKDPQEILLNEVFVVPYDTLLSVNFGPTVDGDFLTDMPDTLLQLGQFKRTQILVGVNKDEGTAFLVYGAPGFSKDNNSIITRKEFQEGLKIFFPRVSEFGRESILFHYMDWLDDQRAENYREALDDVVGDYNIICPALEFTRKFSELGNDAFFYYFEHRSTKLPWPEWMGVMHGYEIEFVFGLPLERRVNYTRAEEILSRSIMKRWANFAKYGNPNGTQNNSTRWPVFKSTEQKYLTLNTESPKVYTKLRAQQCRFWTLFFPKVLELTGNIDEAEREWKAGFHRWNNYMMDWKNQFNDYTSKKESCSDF

[4] = target: T2, BChE from equine serum; experiment: BChE inhibition assay (Ellman, BTCI) and kinetics; type: biochemical; conditions: for remaining activity at 10 µM: read-out: Residual Activity at 10 µM (%) BChE; for Residual Activity at 10 µM (%) BChE: inhibitor 10 µM, mean ± SE, triplicate
[5] = target: T3, AChE from Electrophorus electricus (Electrophorus electricus, UniProt O42275); experiment: AChE inhibition assay (Ellman, ATCI); type: biochemical; conditions: for remaining activity at 10 µM: read-out: Residual Activity at 10 µM (%) AChE; for Residual Activity at 10 µM (%) AChE: inhibitor 10 µM, mean ± SE, triplicate
T3 construct: purchased Sigma-Aldrich
T3 sequence (O42275 24-633): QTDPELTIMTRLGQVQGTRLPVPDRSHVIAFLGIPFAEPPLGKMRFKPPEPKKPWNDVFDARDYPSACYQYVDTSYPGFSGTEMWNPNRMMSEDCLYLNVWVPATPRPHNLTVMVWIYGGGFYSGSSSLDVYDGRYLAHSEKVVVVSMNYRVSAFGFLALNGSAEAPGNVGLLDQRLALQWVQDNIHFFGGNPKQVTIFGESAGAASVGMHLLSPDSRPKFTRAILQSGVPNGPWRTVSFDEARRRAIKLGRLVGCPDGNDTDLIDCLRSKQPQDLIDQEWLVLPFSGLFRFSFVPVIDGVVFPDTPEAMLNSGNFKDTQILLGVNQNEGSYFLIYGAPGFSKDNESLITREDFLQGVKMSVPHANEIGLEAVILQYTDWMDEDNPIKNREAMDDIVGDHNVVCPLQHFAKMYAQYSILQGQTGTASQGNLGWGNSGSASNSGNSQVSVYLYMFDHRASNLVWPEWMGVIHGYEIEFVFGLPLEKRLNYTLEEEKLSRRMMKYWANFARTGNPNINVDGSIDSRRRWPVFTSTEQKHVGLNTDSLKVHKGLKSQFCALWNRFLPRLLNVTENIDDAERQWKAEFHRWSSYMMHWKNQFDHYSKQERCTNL

[6] = target: T4, recombinant human MAO-A (Homo sapiens, UniProt P21397); experiment: biochemical; type: biochemical; conditions: for remaining activity at 10 µM: read-out: Residual Activity at 10 µM (%) MAO-A
T4 construct: purchased Sigma-Aldrich
T4 sequence (P21397 1-527): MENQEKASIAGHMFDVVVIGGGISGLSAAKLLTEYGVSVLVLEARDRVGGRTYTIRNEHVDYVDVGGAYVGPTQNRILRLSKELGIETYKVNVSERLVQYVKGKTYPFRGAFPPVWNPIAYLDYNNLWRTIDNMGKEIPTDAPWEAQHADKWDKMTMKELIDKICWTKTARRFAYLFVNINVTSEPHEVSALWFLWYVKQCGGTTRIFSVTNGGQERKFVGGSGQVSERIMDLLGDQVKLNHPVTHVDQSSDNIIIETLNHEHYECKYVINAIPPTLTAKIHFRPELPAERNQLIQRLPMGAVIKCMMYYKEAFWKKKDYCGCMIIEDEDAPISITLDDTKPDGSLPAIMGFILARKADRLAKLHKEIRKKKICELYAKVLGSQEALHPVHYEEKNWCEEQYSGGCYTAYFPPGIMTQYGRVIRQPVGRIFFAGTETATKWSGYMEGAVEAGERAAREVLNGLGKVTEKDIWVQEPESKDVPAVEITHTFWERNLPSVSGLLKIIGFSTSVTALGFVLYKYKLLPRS

[7] = target: T2, BChE from equine serum; experiment: Reversibility of BChE inhibition by dilution method; type: biochemical
[8] = target: T1, recombinant human MAO-B; experiment: Reversibility of MAO-B inhibition by dialysis; type: biochemical
[9] = tested on: MAO-B; set-up: method as in PMID 28634060; conditions: cited from earlier work
[10] = tested on: AChE; conditions: cited from earlier work
[11] = inhibitor 10 µM, mean ± SE, triplicate

## CC(=O)O[C@@H]1CCC(C)(C)c2ccc3c(c21)C(=O)C(=O)C1=C3OC[C@@H]1C [(1R,15R)-1-acetoxycryptotanshinone]
[1]
  IC50: 2.4 µM

## COc1c(CC=C(C)C)c(O)cc2oc(=O)c3c4ccc(O)cc4oc3c12 [GC, glycyrol]
[2]
  IC50: 29.5 ± 0.67 µM
  remaining activity at 10 µM: 74.2 ± 3.46%
[3]; 2 × IC50 (GC […]; tacrine 0.03 µM), 30 min preincubation
  Residual BChE activity, undialyzed (AU): 34.6%
[3]; 2 × IC50 (GC […]; tacrine 0.03 µM), 6 h dialysis
  Residual BChE activity, dialyzed (AD): 58.4%
[3]; dialysis and dilution methods
  reversibility of BChE inhibition: reversible inhibitor
[4]
  IC50: 7.22 ± 0.37 µM
  Ki: 4.47 µM
  selectivity index (SI) for BChE with respect to AChE: 2.0
  remaining activity at 10 µM: 44.6 ± 5.36%
[4]; Lineweaver-Burk plots
  mode of BChE inhibition: reversible, noncompetitive inhibitor
[5]
  IC50: 14.8 ± 0.19 µM
  remaining activity at 10 µM: 46.1 ± 4.4%
[6]
  IC50: > 40 µM
  remaining activity at 10 µM: 70.5 ± 1.61%
[7]; 15 min preincubation, after dilution
  residual BChE activity, preincubated at 50 × IC50 then diluted to 1 × IC50: 40.1%
[7]; GC at 1 × IC50
  residual BChE activity, control at 1 × IC50 (before dilution): 51.1%
[7]; GC at 50 × IC50
  residual BChE activity at 50 × IC50: 10.3%

## CC1(C)[C@@H](O)CC[C@]2(C)[C@H]3C(=O)C=C4[C@@H]5C[C@@](C)(C(=O)O)CC[C@]5(C)CC[C@@]4(C)[C@]3(C)CC[C@@H]12 [Glycyrrhetinic acid, glycyrrhetinic acid]
[2]
  IC50: > 40 µM
[2]; [11]
  remaining activity at 10 µM: 84 ± 2.16%
[4]
  remaining activity at 10 µM: 95 ± 4.12%
[5]
  remaining activity at 10 µM: 97.3 ± 1.61%
[6]
  IC50: > 40 µM
[6]; [11]
  remaining activity at 10 µM: 96.3 ± 2.64%

## CC1(C)[C@@H](O[C@H]2O[C@H](C(=O)O)[C@@H](O)[C@H](O)[C@H]2O[C@@H]2O[C@H](C(=O)O)[C@@H](O)[C@H](O)[C@H]2O)CC[C@]2(C)[C@H]3C(=O)C=C4[C@@H]5C[C@@](C)(C(=O)O)CC[C@]5(C)CC[C@@]4(C)[C@]3(C)CC[C@@H]12 [Glycyrrhizin, glycyrrhizin]
[2]
  IC50: > 40 µM
[2]; [11]
  remaining activity at 10 µM: 93.1 ± 4.32%
[4]
  remaining activity at 10 µM: 82.3 ± 7.95%
[5]
  remaining activity at 10 µM: 97.7 ± 2.14%
[6]
  IC50: > 40 µM
[6]; [11]
  remaining activity at 10 µM: 95.8 ± 3.3%

## O=C(/C=C/c1ccc(O[C@@H]2O[C@H](CO)[C@@H](O)[C@H](O)[C@H]2O)cc1)c1ccc(O)cc1O [Isoliquiritin, isoliquiritin]
[2]
  IC50: > 40 µM
  remaining activity at 10 µM: 75.4 ± 2.27%
[4]
  IC50: > 40 µM
  remaining activity at 10 µM: 91.9 ± 7.16%
[5]
  IC50: > 40 µM
  remaining activity at 10 µM: 69.9 ± 2.2%
[6]
  IC50: > 40 µM
  remaining activity at 10 µM: 81.8 ± 1.61%

## O=C1C[C@@H](c2ccc(O)cc2)Oc2cc(O)ccc21 [LG, Liquiritigenin]
[2]; Lineweaver-Burk plots
  mode of MAO-B inhibition: reversible competitive inhibitor
[2]
  remaining activity at 10 µM: 0%
[4]
  IC50: > 40 µM
  remaining activity at 10 µM: 82.5 ± 0.26%
[8]
  reversibility of MAO-B inhibition: reversibly inhibited
[5]
  IC50: > 40 µM
  remaining activity at 10 µM: 95.3 ± 3.59%
[6]
  IC50: 0.27 ± 0.041 µM
  remaining activity at 10 µM: 0.46 ± 1.6%

## O=C1C[C@@H](c2ccc(O[C@@H]3O[C@H](CO)[C@@H](O)[C@H](O)[C@H]3O)cc2)Oc2cc(O)ccc21 [Liquiritin, liquiritin]
[2]
  IC50: > 40 µM
  remaining activity at 10 µM: 90.2 ± 0.56%
[4]
  IC50: > 40 µM
  remaining activity at 10 µM: 95.5 ± 4.67%
[5]
  IC50: > 40 µM
  remaining activity at 10 µM: 93.5 ± 5.12%
[6]
  IC50: > 40 µM
  remaining activity at 10 µM: 93.5%

## COc1ccc(-c2cc(=O)c3c(O)cc(O)cc3o2)cc1 [acacetin]
[9]
  IC50: 0.17 µM

## COc1cc2c(cc1O)C[C@H]1c3c(cc(O)c(OC)c3-2)CCN1C [boldine]
[1]
  IC50: 321 µM

## COc1ccc(CCCc2ccc(O)cc2)c(O)c1 [broussonin A]
[1]
  IC50: 7.5 µM

## COc1ccc([C@@H]2CC(=O)c3c(O)cc(O[C@@H]4O[C@H](CO[C@@H]5O[C@@H](C)[C@H](O)[C@@H](O)[C@H]5O)[C@@H](O)[C@H](O)[C@H]4O)cc3O2)cc1O [hesperidin]
[10]
  IC50: 0.00345 µM

## CC(C)=CCC[C@]1(C)[C@@H](CC=C(C)C)C[C@@]2(CC=C(C)C)C(=O)[C@]1(C(=O)C(C)C)C(=O)C(CC=C(C)C)=C2O [hyperforin]
[1]
  IC50: 142 µM

## Cc1cc2c(cc(=O)c1O)[C@@]1(CO)CCCC(C)(C)[C@@H]1CC2 [isograndifoliol]
[1]
  IC50: 0.9 µM

## CCC(C)C(=O)c1c(O)c2c(c3c(-c4ccccc4)cc(=O)oc13)OC(C)(CCC=C(C)C)C=C2 (stereo not shown) [mesuagenin B]
[10]; from Mesua elegans
  IC50: 0.7 µM

## CC(C)=CCc1c(O)ccc2ccc(=O)oc12 [osthenol]
[10]; from Angelica pubescens
  IC50: 25.3 µM

## COc1c(OC)c2occc2c2oc(=O)ccc12 [pimpinellin]
[1]
  BChE inhibition: 78.02%

## COc1cc2ccc(=O)oc2cc1O [scopoletin]
[1]
  IC50: 9.11 µM

## COc1cc2ccc(=O)oc2c2ccoc12 [sphondin]
[1]
  BChE inhibition: 63.69%

## COc1c2occc2cc2ccc(=O)oc12 [xanthotoxin]
[10]; from Ferula lutea
  IC50: 0.76 µM

## cremaphenanthrene F
[1]
  IC50: 14.6 µM

## hyuganin C
[1]
  IC50: 38.9 µM

## isoliquiritin apioside
[2]; [11]
  Residual Activity at 10 µM (%) MAO-B: 80.3 ± 5.57%
[4]
  Residual Activity at 10 µM (%) BChE: 95.6 ± 0.88%
[5]
  Residual Activity at 10 µM (%) AChE: 93.5 ± 3.07%
[6]; [11]
  Residual Activity at 10 µM (%) MAO-A: 86.6 ± 3.27%

## liquiritin apioside
[2]; [11]
  Residual Activity at 10 µM (%) MAO-B: 94.8 ± 0.57%
[4]
  Residual Activity at 10 µM (%) BChE: 97.6 ± 0.93%
[5]
  Residual Activity at 10 µM (%) AChE: 63.5 ± 2.56%
[6]; [11]
  Residual Activity at 10 µM (%) MAO-A: 86.9 ± 2.41%

## sagachromanol I
[1]
  IC50: 10.8 µM

## tannic acid
[10]
  IC50: 0.087 µM
